Experiment [1] concerns H. influenzae strain 33929. Description: MIC by micro-dilution method, H. influenzae strain 33929. In kind it is cell-based, Haemophilus influenzae. Particulars: compounds of the invention (scaffold drawing 61, 9-hydroxy); 24 hours, 35+/-2° C. As to the method:
(§1) Susceptibility tests can be used to quantitatively measure the in vitro activity of an antimicrobial agent against a given bacterial isolate. Compounds are tested for in vitro antibacterial activity by a micro-dilution method. Minimal Inhibitory Concentration (MIC) is determined in 96 well microtiter plates utilizing the appropriate broth medium for the observed bacterial isolates. Antimicrobial agents are serially diluted (2-fold) in DMSO to produce a concentration range from about 64 μg/ml to about 0.03 μg/ml. The diluted compounds (2 μl/well) are then transferred into sterile, uninoculated medium (0.2 mL) by use of a 96 fixed tip-pipetting station. The inoculum for each bacterial strain is standardized to approximately 5×10^5 CFU/mL by optical comparison to a 0.5 McFarland turbidity standard. The plates are inoculated with 10 μl/well of adjusted bacterial inoculum. The 96 well plates are covered and incubated at 35+/−2° C. for 24 hours in ambient air environment. Following incubation, plate wells are visually examined by Optical Density measurement for the presence of growth (turbidity). The lowest concentration of an antimicrobial agent at which no visible growth occurs is defined as the MIC.
(§2) All in vitro testing follows the guidelines described in the Approved Standards M7-A7 protocol, published by the Clinical Laboratory Standards Institute (CLSI).
(§3) Table II below provides MIC data for compounds of the invention and related species from U.S. Pat. No. 6,878,691 and US Published Application No. 2009/0118506, each of which is incorporated herein by reference. The values in the table are minimum inhibition concentration (MIC) and are expressed as ug/mL.

For experiment [2], the system named is H. influenzae strain 49247. Briefly: MIC by micro-dilution method, H. influenzae strain 49247. It is filed as cell-based, Haemophilus influenzae. Particulars: compounds of the invention (scaffold drawing 61, 9-hydroxy); 24 hours, 35+/-2° C. The method, then: as §1, §2, §3
In general terms: Broth dilution looks for growth in wells or tubes with falling amounts of substance.

`CC[C@H]1OC(=O)[C@@](C)(F)C(=O)[C@H](C)[C@@H](O[C@@H]2O[C@H](C)C[C@H](N(C)C)[C@H]2O)[C@@]2(C)C[C@@H](C)[C@H](O)[C@H](C)C(OCC(=NOCc3cnc(-c4cccc(N)n4)s3)CO2)[C@]1(C)O` [Compound 12]: the “H. influenzae MIC strain 33929” value in experiment [1] was determined as 2 µg/mL. Also, in experiment [2], the “H. influenzae MIC strain 49247” value came to 1 µg/mL. As for `CC[C@H]1OC(=O)[C@H](C)C(=O)[C@H](C)[C@@H](O[C@@H]2O[C@H](C)C[C@H](N(C)C)[C@H]2O)[C@@]2(C)C[C@@H](C)[C@H](O)[C@H](C)C(OCC(=NOCc3ccc(-c4nc(N)ns4)cn3)CO2)[C@]1(C)O` [Compound 2], the “H. influenzae MIC strain 33929” value in experiment [1] amounted to 1 µg/mL. Besides, in experiment [2], the “H. influenzae MIC strain 49247” value was 1 µg/mL.

Turning to `CC[C@H]1OC(=O)[C@H](C)C(=O)[C@H](C)[C@@H](O[C@@H]2O[C@H](C)C[C@H](N(C)C)[C@H]2O)[C@@]2(C)C[C@@H](C)[C@H](O)[C@H](C)C(OCC(=NOCc3ncc(-c4cccc(N)n4)s3)CO2)[C@]1(C)O` [Compound 8], the “H. influenzae MIC strain 33929” value in experiment [1] was 2 µg/mL. Also, the “H. influenzae MIC strain 49247” value in experiment [2] is 1 µg/mL. The matching figures for `CC[C@H]1OC(=O)[C@@](C)(F)C(=O)[C@H](C)[C@@H](O[C@@H]2O[C@H](C)C[C@H](N(C)C)[C@H]2O)[C@@]2(C)C[C@@H](C)[C@H](O)[C@H](C)C(OCC(=NOCc3ncc(-c4cccc(N)n4)s3)CO2)[C@]1(C)O` [Compound 11]: 1 µg/mL and 1 µg/mL. Turning to `CC[C@H]1OC(=O)[C@H](C)C(=O)[C@H](C)[C@@H](O[C@@H]2O[C@H](C)C[C@H](N(C)C)[C@H]2O)[C@@]2(C)C[C@@H](C)[C@H](O)[C@H](C)C(OCC(=NOCc3csc(-c4cccc(N)n4)n3)CO2)[C@]1(C)O` [Compound 9], the “H. influenzae MIC strain 33929” value in experiment [1] was 1 µg/mL. Moreover, the “H. influenzae MIC strain 49247” value in experiment [2] was 1 µg/mL. With `CCC1OC(=O)C(C)(F)C(=O)C(C)C(OC2OC(C)CC(N(C)C)C2O)C2(C)CC(C)C(O)C(C)C(OCC(=NOCc3ccc(-c4nccs4)cn3)CO2)C1(C)O` (mixture of isomers) [Compound 16], the “H. influenzae MIC strain 33929” value in experiment [1] turned out to be 2 µg/mL.

`CC[C@H]1OC(=O)[C@@](C)(F)C(=O)[C@H](C)[C@@H](O[C@@H]2O[C@H](C)C[C@H](N(C)C)[C@H]2O)[C@@]2(C)C[C@@H](C)[C@H](O)[C@H](C)C(OCC(=NOCc3ccc(-c4nc(N)cs4)cn3)CO2)[C@]1(C)O` [Compound 10]: the “H. influenzae MIC strain 33929” value in experiment [1] turned out to be 4 µg/mL. The “H. influenzae MIC strain 49247” value in experiment [2] was determined as 1 µg/mL. For `CC[C@H]1OC(=O)[C@H](C)C(=O)[C@H](C)[C@@H](O[C@@H]2O[C@H](C)C[C@H](N(C)C)[C@H]2O)[C@@]2(C)C[C@@H](C)[C@H](O)[C@H](C)C(OCC(=NOCc3cccc(-c4cccc(N)n4)n3)CO2)[C@]1(C)O` [Compound 6], the “H. influenzae MIC strain 33929” value in experiment [1] stood at 1 µg/mL. For the same molecule, the “H. influenzae MIC strain 49247” value in experiment [2] is 1 µg/mL. With `CC[C@H]1OC(=O)[C@H](C)C(=O)[C@H](C)[C@@H](O[C@@H]2O[C@H](C)C[C@H](N(C)C)[C@H]2O)[C@@]2(C)C[C@@H](C)[C@H](O)[C@H](C)C(OCC(=NOCc3ccc(-c4ccno4)nc3)CO2)[C@]1(C)O` [Compound 4], the “H. influenzae MIC strain 33929” value in experiment [1] was 1 µg/mL. The “H. influenzae MIC strain 49247” value in experiment [2] turned out to be 1 µg/mL.

On to `CCC1OC(=O)C(C)(F)C(=O)C(C)C(OC2OC(C)CC(N(C)C)C2O)C2(C)CC(C)C(O)C(C)C(OCC(=NOCc3coc(-c4cccc(N)n4)n3)CO2)C1(C)O` (mixture of isomers) [Compound 14], for which the “H. influenzae MIC strain 33929” value in experiment [1] is 2 µg/mL. Moreover, the “H. influenzae MIC strain 49247” value in experiment [2] came out at 1 µg/mL. The matching figures for `CC[C@H]1OC(=O)[C@H](C)C(=O)[C@H](C)[C@@H](O[C@@H]2O[C@H](C)C[C@H](N(C)C)[C@H]2O)[C@@]2(C)C[C@@H](C)[C@H](O)[C@H](C)C(OCC(=NOCc3ccc(-c4nc(N)cs4)cn3)CO2)[C@]1(C)O` [Compound 3]: 4 µg/mL and 2 µg/mL. For `CCC1OC(=O)C(C)(F)C(=O)C(C)C(OC2OC(C)CC(N(C)C)C2O)C2(C)CC(C)C(O)C(C)C(OCC(=NOCc3ccc(-c4nc(N)cs4)nc3)CO2)C1(C)O` (mixture of isomers) [Compound 18], the “H. influenzae MIC strain 33929” value in experiment [1] was found to be 2 µg/mL. For the same molecule, the “H. influenzae MIC strain 49247” value in experiment [2] came out at 1 µg/mL. The matching figures for `CCC1OC(=O)C(C)(F)C(=O)C(C)C(OC2OC(C)CC(N(C)C)C2O)C2(C)CC(C)C(O)C(C)C(OCC(=NOCc3csc(-c4cccc(N)n4)n3)CO2)C1(C)O` (mixture of isomers) [Compound 17]: 1 µg/mL and 1 µg/mL.

For `CC[C@H]1OC(=O)[C@H](C)C(=O)[C@H](C)[C@@H](O[C@@H]2O[C@H](C)C[C@H](N(C)C)[C@H]2O)[C@@]2(C)C[C@@H](C)[C@H](O)[C@H](C)C(OCC(=NOCc3ccc(-n4ccc(N)n4)nc3)CO2)[C@]1(C)O` [Compound 7], in experiment [1], the “H. influenzae MIC strain 33929” value was 1 µg/mL. In experiment [2], the “H. influenzae MIC strain 49247” value was 1 µg/mL.

Consider `CCC1OC(=O)C(C)(F)C(=O)C(C)C(OC2OC(C)CC(N(C)C)C2O)C2(C)CC(C)C(O)C(C)C(OCC(=NOCc3ccc(-c4ccno4)nc3)CO2)C1(C)O` (mixture of isomers) [Compound 13], for which, in experiment [1], the “H. influenzae MIC strain 33929” value worked out at 2 µg/mL. Also, the “H. influenzae MIC strain 49247” value in experiment [2] was 1 µg/mL. The matching figures for `CC[C@H]1OC(=O)[C@H](C)C(=O)[C@H](C)[C@@H](O[C@@H]2O[C@H](C)C[C@H](N(C)C)[C@H]2O)[C@@]2(C)C[C@@H](C)[C@H](O)[C@H](C)C(OCC(=NOCc3ccc(-n4ccc(N)n4)cn3)CO2)[C@]1(C)O` [Compound 5]: 2 µg/mL and 2 µg/mL. The matching figures for `CCC1OC(=O)C(C)(F)C(=O)C(C)C(OC2OC(C)CC(N(C)C)C2O)C2(C)CC(C)C(O)C(C)C(OCC(=NOCc3ccc(-c4nc(N)cs4)cc3)CO2)C1(C)O` (mixture of isomers) [Compound 15]: 4 µg/mL and 4 µg/mL.

(Values after patent US8383785B2, “Anti-bacterial activity of 9-hydroxy derivatives of 6,11-bicyclolides” (Enanta Pharmaceuticals, Inc., priority 2008, dated 2013).)
